Activity calls are given as the source filed them. The rule behind the calls is not given here.
Legend:
[1] = test system: Lipid bilayer; experiment: Vesicular anionophoric activity in large unilamellar vesicle membrane derived from egg-yolk L-alpha-phosphatidylcholine assessed as induction of relative efflux of chloride ions in presence of cesium (Cs+) measured up to 300 seconds by using chloride-selective electrode; conditions: time <= 300.0 sec
[2] = test system: Lipid bilayer; experiment: Vesicular anionophoric activity in large unilamellar vesicle membrane derived from egg-yolk L-alpha-phosphatidylcholine assessed as induction of relative efflux of chloride ions in presence of sodium (Na+) measured up to 300 seconds by using chloride-selective electrode; conditions: time <= 300.0 sec
[3] = test system: HT-29; experiment: Antiproliferative activity against human HT-29 cells by MTT assay; type: functional, cell-based
[4] = test system: HepG2; experiment: Antiproliferative activity against human HepG2 cells by MTT assay; type: functional, cell-based
[5] = test system: MCF7; experiment: Antiproliferative activity against human MCF7 cells by MTT assay; type: functional, cell-based
[6] = test system: A2780; experiment: Antiproliferative activity against human A2780 cells by MTT assay; type: functional, cell-based
[7] = test system: Lipid bilayer; experiment: Vesicular anionophoric activity in large unilamellar vesicle membrane derived from egg-yolk L-alpha-phosphatidylcholine assessed as induction of relative efflux of chloride ions in presence of potassium (K+) measured up to 300 seconds by using chloride-selective electrode; conditions: time <= 300.0 sec
[8] = test system: Lipid bilayer; experiment: Vesicular anionophoric activity in large unilamellar vesicle membrane derived from egg-yolk L-alpha-phosphatidylcholine assessed as induction of relative efflux of chloride ions measured up to 300 seconds by using chloride-selective electrode
[9] = test system: Lipid bilayer; experiment: Vesicular anionophoric activity in Bulky nitrobenzene membrane assessed as induction of relative efflux of chloride ions measured up to 100 hrs by using chloride-selective electrode
[10] = test system: HCT-8; experiment: Antiproliferative activity against human HCT-8 cells by MTT assay; type: functional, cell-based
[11] = test system: Lipid bilayer; experiment: Vesicular anionophoric activity in large unilamellar vesicle membrane derived from egg-yolk L-alpha-phosphatidylcholine assessed as induction of relative efflux of chloride ions in presence of rubidium (Rb+) measured up to 300 seconds by using chloride-selective electrode; conditions: time <= 300.0 sec
[12] = test system: Lipid bilayer; experiment: Vesicular anionophoric activity in large unilamellar vesicle membrane derived from egg-yolk L-alpha-phosphatidylcholine assessed as induction of relative efflux of chloride ions in presence of lithium (Li+) measured up to 300 seconds by using chloride-selective electrode; conditions: time <= 300.0 sec
[13] = test system: HepG2; experiment: Disruption of homeostasis of chloride anions in golgi apparatus of human HepG2 cells assessed as increase in fluorescence intensity of 6-methoxy-1-(2-oxo-2-((4-sulfamoylphenyl)amino)ethyl)quinolin-1-ium Bromide measured after 12 hts by CLSM imaging analysis; type: functional, cell-based
[14] = test system: HepG2; experiment: Suppression of Golgi structural and functional protein expression in human HepG2 cells assessed as decrease in GRASP55 protein expression at 20 uM measured after 48 hrs incubation by Western blot analysis; type: cell-based
[15] = test system: HepG2; experiment: Suppression of Golgi structural and functional protein expression in human HepG2 cells assessed as decrease in GM130 protein expression at 20 uM measured after 48 hrs incubation by Western blot analysis; type: cell-based
[16] = test system: HepG2; experiment: Induction of apoptosis in human HepG2 cells assessed as viable cells at 5 uM measured after 24 hrs incubation by Propidium iodide/Annexin V-FITC analysis (reference value: 90.2%); type: functional; conditions: read-out: Activity
[17] = test system: HepG2; experiment: Induction of apoptosis in human HepG2 cells assessed as necrotic cells at 5 uM measured after 24 hrs incubation by Propidium iodide/Annexin V-FITC analysis (reference value: 1.14%); type: functional
[18] = test system: HepG2; experiment: Induction of apoptosis in human HepG2 cells assessed as late apoptotic cells at 5 uM measured after 24 hrs incubation by Propidium iodide/Annexin V-FITC analysis (reference value: 5.71%); type: functional
[19] = test system: HepG2; experiment: Induction of apoptosis in human HepG2 cells assessed as early apoptotic cells at 5 uM measured after 24 hrs incubation by Propidium iodide/Annexin V-FITC analysis (reference value: 2.90%); type: functional
[20] = test system: HepG2; experiment: Suppression of Golgi structural and functional protein expression in human HepG2 cells assessed as decrease in GRASP55 protein expression at 5 to 20 uM measured after 48 hrs incubation by Western blot analysis; type: cell-based; conditions: dose 5-20 µM
[21] = test system: HepG2; experiment: Disruption of homeostasis of chloride anions in golgi apparatus of human HepG2 cells assessed as increase in fluorescence intensity of 6-methoxy-1-(2-oxo-2-((4-sulfamoylphenyl)amino)ethyl)quinolin-1-ium Bromide at 50 uM measured after 12 hts by CLSM imaging analysis; type: functional, cell-based
[22] = test system: HepG2; experiment: Suppression of Golgi structural and functional protein expression in human HepG2 cells assessed as decrease in GM130 protein expression at 5 to 20 uM measured after 48 hrs incubation by Western blot analysis; type: cell-based; conditions: dose 5-20 µM
[23] = test system: HepG2; experiment: Induction of chloride ion influx in human HepG2 cells assessed as effect on lysosomal chloride anions at […] measured after 12 hrs incubation by chloride-sensitive dye MQAE-MP based CLSM imaging analysis; type: functional, cell-based

Activity [1]	Activity [2]	IC50 [3] [µM]	IC50 [4] [µM]	IC50 [5] [µM]	IC50 [6] [µM]	Activity [7]	EC50 [8] [mol%]	IC50 [10] [µM]	Activity [11]	Activity [12]	Structure (SMILES)	Activity [9]	further results
Active	Active	33.8	31.9	23.6	> 50	Active	5.78	25.6	Active	Active	NS(=O)(=O)c1ccc(NC(=O)CCCCCNc2c(Nc3ccc(Cl)cc3)c(=O)c2=O)cc1	Active; Compound Exhibit Anion Transport Activity Most Probably Through Carrier Mechanism	–
Active	Active	29.6	26.7	28.5	46.9	Active	9.35	22.7	Active	Active	NS(=O)(=O)c1ccc(NC(=O)CCCCCNc2c(Nc3ccccc3)c(=O)c2=O)cc1	Active; Compound Exhibit Anion Transport Activity Most Probably Through Carrier Mechanism	EC50 [13]: 31.1 µM; Activity [14]: Active; Activity [15]: Active
Active	Active	40.9	20.6	> 50	> 50	Active	3.44	39.1	Active	Active	NS(=O)(=O)c1ccc(NC(=O)CCCCCNc2c(Nc3cc(Cl)cc(Cl)c3)c(=O)c2=O)cc1	Active; Compound Exhibit Anion Transport Activity Most Probably Through Carrier Mechanism	–
Active	Active	47.4	36.7	33	> 50	Active	> 10	32.2	Active	Active	Cc1ccc(Nc2c(NCCCCCC(=O)Nc3ccc(S(N)(=O)=O)cc3)c(=O)c2=O)cc1	Active; Compound Exhibit Anion Transport Activity Most Probably Through Carrier Mechanism	–
Active	Active	24.7	27.1	> 50	21.1	Active	2.93	19.2	Active	Active	NS(=O)(=O)c1ccc(NC(=O)CCCCCNc2c(Nc3ccc(C(F)(F)F)cc3)c(=O)c2=O)cc1	Active; Compound Exhibit Anion Transport Activity Most Probably Through Carrier Mechanism	–
Active	Active	42.1	33.6	30.1	> 50	Active	3.76	36.5	Active	Active	NS(=O)(=O)c1ccc(NC(=O)CCCCCNc2c(Nc3ccc(F)cc3)c(=O)c2=O)cc1	Active; Compound Exhibit Anion Transport Activity Most Probably Through Carrier Mechanism	–
Active	Active	> 50	> 50	> 50	> 50	Active	3.08	> 50	Active	Active	NS(=O)(=O)c1ccc(NC(=O)CCCCCNc2c(Nc3cc([N+](=O)[O-])cc([N+](=O)[O-])c3)c(=O)c2=O)cc1	Active; Compound Exhibit Anion Transport Activity Most Probably Through Carrier Mechanism	–
–	–	1.22	0.57	0.32	1.03	–	–	1.21	–	–	COc1cccc2c1C(=O)c1c(O)c3c(c(O)c1C2=O)C[C@@](O)(C(=O)CO)C[C@@H]3O[C@H]1C[C@H](N)[C@H](O)[C@H](C)O1.Cl [DOXORUBICIN HYDROCHLORIDE]	–	viability at 5 µM [16]: 58.5%; Activity [17]: 3.96%; Activity [18]: 20.7%; Activity [19]: 16.8%
Active	Active	18.7	35.9	15.5	48.8	Active	3.06	41	Active	Active	NS(=O)(=O)c1ccc(NC(=O)CCCCCNc2c(Nc3ccc(Br)cc3)c(=O)c2=O)cc1	Active; Compound Exhibit Anion Transport Activity Most Probably Through Carrier Mechanism	–
Active	Active	45.1	38.1	37.1	> 50	Active	4.57	31.8	Active	Active	N#Cc1ccc(Nc2c(NCCCCCC(=O)Nc3ccc(S(N)(=O)=O)cc3)c(=O)c2=O)cc1	Active; Compound Exhibit Anion Transport Activity Most Probably Through Carrier Mechanism	–
Active	Active	49.5	41.9	39.7	> 50	Active	> 10	44.7	Active	Active	COc1ccc(Nc2c(NCCCCCC(=O)Nc3ccc(S(N)(=O)=O)cc3)c(=O)c2=O)cc1	Active; Compound Exhibit Anion Transport Activity Most Probably Through Carrier Mechanism	Activity [20]: Active; Activity [21]: inactive; Activity [22]: inactive
Active	Active	> 50	> 50	> 50	> 50	Active	2.86	> 50	Active	Active	NS(=O)(=O)c1ccc(NC(=O)CCCCCNc2c(Nc3ccc([N+](=O)[O-])cc3)c(=O)c2=O)cc1	Active; Compound Exhibit Anion Transport Activity Most Probably Through Carrier Mechanism	–
–	–	–	–	–	–	–	–	–	–	–	COc1ccc2c(ccc[n+]2CC(=O)Nc2ccc(S(N)(=O)=O)cc2)c1	–	Activity [23]: Active

Reference: ChEMBL document CHEMBL6177955, “Design, synthesis and biological evaluation of Golgi-targeting anion transporters as inducers of Golgiphagy and apoptosis in cancer cells” (Eur J Med Chem, 2025)
